{"source": "patent US9879013B2", "about": "“Purinone derivative” (ONO PHARMACEUTICAL CO., LTD., priority 2010, dated 2018)", "key": {"Human liver cells": {"test_system": "Human liver cells", "assay": "Ability to reduce the mitochondrial membrane potential in cultured human hepatoma cells (JC-1)", "format": "cell-based", "conditions": "JC-1, exposure for 24 hours, read-out: Ability to lower the mitochondrial membrane potential (IC50 (μM))", "description": "Measurement of the Cytotoxicity and Ability to Reduce the Mitochondrial Membrane Potential in Cultured Human Hepatoma Cells\nTissue that maintains an aerobic equilibrium, e.g., the kidneys and heart, and tissue that is exposed to high drug concentrations and carries out drug metabolism, e.g., the liver, are known to be sensitive to mitochondrial dysfunction (Drug Discovery Today, 12 (17-18), 777-785, 2007). The reduction or extinction of the mitochondrial membrane potential by a drug is caused by the direct inhibition of the electron transport system, decoupling of electron transport from ATP synthase, or the opening of a mitochondrial membrane permeability transition pore. As a consequence, measurement of the mitochondrial membrane potential of liver cells can provide a parameter for hepatotoxicity.\nHuman liver cells were seeded into a collagen-coated 96-well plate at a cell density of 30,000 cells/well and incubation was carried out overnight in an incubator at 37° C. in 5% CO2-95% air. The cultured cells were stained for 1 hour with 5,5′,6,6′-tetrahydro-1,1′,3,3′-tetramethyl-benzamidazolocarbocyanine iodide (JC-1) followed by treatment with the test compound. The test compound was dissolved in DMSO and then diluted with the liquid culture medium Hepatocyte Culture Medium (HCM) and added to the cells. The test compound treatment concentrations were 0, 6.25, 12.5, 25, 50, 100, 200, and 400 μmol/L. After exposure to the test compound for 24 hours, measurement was performed with a SpectraMax plate reader (Molecular Devices, LLC) at an excitation wavelength of 485 nm and a fluorescence wavelength of 538 nm and an excitation wavelength of 544 nm and a fluorescence wavelength of 590 nm. The membrane potential was determined by the ratio between the 544 nm/590 nm measurement value and the 485 nm/538 nm measurement value. After this, the ATP concentration in the cells was measured using a Celltiter Glo luminescent assay kit (Promega Corporation) in order to evaluate the cell toxicity of the test compound. The cells were lysed by the assay buffer provided with the measurement kit and the concentration of the ATP released from the cells was measured using the luciferin-luciferase enzyme activity as the index. The emission was measured using a SpectraMax plate reader. […] The ability to lower the mitochondrial membrane potential of the test compounds and the cytotoxicity of the test compounds are given in Table 3 below."}, "Human CYP2C8": {"target": "Human CYP2C8 (Homo sapiens (Human), UniProt P10632)", "sequence (P10632 whole entry)": "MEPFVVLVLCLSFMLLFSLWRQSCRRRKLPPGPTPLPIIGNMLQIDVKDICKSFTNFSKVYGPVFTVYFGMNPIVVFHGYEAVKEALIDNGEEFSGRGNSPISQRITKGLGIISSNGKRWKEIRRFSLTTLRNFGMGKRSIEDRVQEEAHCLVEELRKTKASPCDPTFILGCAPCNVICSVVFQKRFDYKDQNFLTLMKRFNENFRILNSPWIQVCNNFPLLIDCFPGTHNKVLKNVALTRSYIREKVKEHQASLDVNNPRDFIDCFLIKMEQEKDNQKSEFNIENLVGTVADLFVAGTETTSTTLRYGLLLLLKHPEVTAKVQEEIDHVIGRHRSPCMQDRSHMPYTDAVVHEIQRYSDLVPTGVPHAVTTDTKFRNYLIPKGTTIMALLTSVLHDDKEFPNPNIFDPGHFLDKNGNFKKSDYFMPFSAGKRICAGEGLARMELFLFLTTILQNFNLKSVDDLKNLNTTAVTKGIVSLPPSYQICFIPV", "assay": "Inhibitory action on human CYP2C8", "format": "in vitro ADME", "procedure": "(§1) Measurement of the Inhibitory Activity on Drug-Metabolizing Enzymes (Inhibitory Action on Human CYP2C8 and Human CYP2C19)\nThe reaction was carried out in a 96-well plate. […] 100 μL of this reaction mixture and 50 μL of the test compound prepared as described above and the positive control solution prepared as described above were dispensed into each well and pre-incubation was carried out at 10 minutes for 37° C. The reaction was started by the addition of 50 μL NADPH solution (final concentration=1 mmol/L) and incubation was carried out for 30 minutes at 37° C."}, "[1]": {"assay": "Stability in the rat liver microsome", "conditions": "0.5 mg/mL microsomes, NADPH, 15 minutes at 37° C.", "protocol": "Evaluation of the Stability in the Rat and Human Liver Microsome\nA 0.25 mmol/L solution was prepared by diluting the test compound (10 mmol/L DMSO solution, 5 μL) with an aqueous 50% acetonitrile solution (195 μL).\n20 μL was collected immediately after the start and the reaction was stopped by the addition to 180 μL of acetonitrile that contained an internal standard (warfarin). 20 μL of this solution was stirred with 180 μL of an aqueous 50% acetonitrile solution on a filter plate for protein depletion followed by suction filtration, and the filtrate was used as the standard sample.\nThe previously indicated reaction solution was incubated for 15 minutes at 37° C., and 20 μL was then added to 180 μL cold acetonitrile (contained the internal standard warfarin) to stop the reaction. 20 μL of this was stirred with 180 μL of an aqueous 50% acetonitrile solution on a filter plate for protein depletion followed by suction filtration, and the filtrate was used as the standard sample."}, "Human CYP2C19": {"target": "Human CYP2C19 (Homo sapiens (Human), UniProt P33261)", "sequence (P33261 whole entry)": "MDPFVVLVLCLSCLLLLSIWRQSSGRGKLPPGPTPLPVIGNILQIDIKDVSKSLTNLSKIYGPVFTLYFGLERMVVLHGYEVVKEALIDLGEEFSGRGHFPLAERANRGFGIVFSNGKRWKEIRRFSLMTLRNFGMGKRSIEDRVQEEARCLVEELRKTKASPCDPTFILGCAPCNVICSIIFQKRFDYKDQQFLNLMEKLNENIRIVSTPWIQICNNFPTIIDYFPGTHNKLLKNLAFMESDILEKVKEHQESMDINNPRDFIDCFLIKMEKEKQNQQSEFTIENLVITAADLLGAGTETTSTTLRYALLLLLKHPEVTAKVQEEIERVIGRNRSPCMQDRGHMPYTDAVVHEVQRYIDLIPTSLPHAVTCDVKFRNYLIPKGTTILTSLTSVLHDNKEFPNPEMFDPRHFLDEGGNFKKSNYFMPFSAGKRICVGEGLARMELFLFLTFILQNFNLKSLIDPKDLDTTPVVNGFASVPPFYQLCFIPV", "assay": "Inhibitory action on human CYP2C19", "format": "in vitro ADME", "procedure": "as §1\nThe reaction was carried out in a 96-well plate. The positive control substances (CYP2C8: ketoconazole, CYP2C19: tranylcypromine) were adjusted (CYP2C8: 0.6 and 6 mmol/L, CYP2C19: 0.9 and 9 mmol/L) with DMSO to concentrations that were 300 times the final concentration, and solutions were prepared (CYP2C8: 8 and 80 μmol/L, CYP2C19: 12 and 120 μmol/L) by 75× dilution with purified water that contained 2.7% acetonitrile. The test compounds were adjusted to […] with DMSO and were adjusted to 4 and 40 μmol/L by 75× dilution with purified water that contained 2.7% acetonitrile. A reaction mixture was then prepared (the numerical values are final concentrations) by the addition of potassium phosphate buffer (pH 7.4), magnesium chloride ([…]), substrate (CYP2C8: dibenzylfluorescein 1 μmol/L, CYP2C19: 3-cyano-7-ethoxycoumarin 25 μmol/L), and E. coli-expressed liver microsome CYP2C8 (Cypex, 10 pmol/L) and CYP2C19 (Cypex, 3 pmol/L). 100 μL of this reaction mixture and 50 μL of the test compound prepared as described above and the positive control solution prepared as described above were dispensed into each well and pre-incubation was carried out at 10 minutes for 37° C. The reaction was started by the addition of 50 μL NADPH solution (final concentration=1 mmol/L) and incubation was carried out for 30 minutes at 37° C. The fluorescence intensity was measured (CYP2C8: excitation wavelength=485 nm, fluorescence wavelength=538 nm; CYP2C19: excitation wavelength=409 nm, fluorescence wavelength=460 nm) immediately after the addition of the NADPH and after incubation for 30 minutes."}, "Btk": {"target": "Btk (Homo sapiens (Human), UniProt Q06187)", "sequence (Q06187 whole entry)": "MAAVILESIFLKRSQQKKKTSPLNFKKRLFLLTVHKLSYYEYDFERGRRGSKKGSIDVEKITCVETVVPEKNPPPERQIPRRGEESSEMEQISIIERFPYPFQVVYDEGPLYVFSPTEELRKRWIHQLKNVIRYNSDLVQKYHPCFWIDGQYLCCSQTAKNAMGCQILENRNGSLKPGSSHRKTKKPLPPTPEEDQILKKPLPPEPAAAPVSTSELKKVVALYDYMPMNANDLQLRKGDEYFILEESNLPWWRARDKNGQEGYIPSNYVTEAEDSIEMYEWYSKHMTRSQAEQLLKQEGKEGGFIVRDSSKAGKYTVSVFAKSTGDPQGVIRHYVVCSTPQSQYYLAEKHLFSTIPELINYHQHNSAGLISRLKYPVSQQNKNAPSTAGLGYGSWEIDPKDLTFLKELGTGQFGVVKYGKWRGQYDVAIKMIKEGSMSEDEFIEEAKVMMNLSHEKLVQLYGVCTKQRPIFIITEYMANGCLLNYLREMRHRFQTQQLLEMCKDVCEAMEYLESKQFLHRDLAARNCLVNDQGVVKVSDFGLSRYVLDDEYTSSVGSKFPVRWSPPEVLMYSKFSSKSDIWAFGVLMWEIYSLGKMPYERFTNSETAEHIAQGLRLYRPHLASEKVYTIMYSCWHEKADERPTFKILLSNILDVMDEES", "assay": "Btk enzyme inhibitory activity (Z'-LYTE Kinase Assay Kit-Tyr1 peptide)", "format": "biochemical", "conditions": "Tyr-1 peptide 4 μM, Btk 5 nM, ATP 36 μM, 1 hour at 30° C.", "procedure": "The Btk enzyme inhibitory activity was measured, based on the protocol provided by the manufacturer, using Btk (Invitrogen Corporation) and the Z′-LYTE® Kinase Assay Kit-Tyr1 peptide (Invitrogen Corporation), which contained the following reagents: Tyr-1 peptide, Thy-1 phosphopeptide, 5× kinase buffer, ATP, development reagent B, development buffer, and stop reagent.\n5 μL/well of a solution of the test compound diluted with dimethyl sulfoxide (DMSO), or DMSO, and 10 μL/well of the substrate/enzyme mixture solution were dispensed to a 96-well assay plate and a reaction was carried out for 20 minutes at 30° C. […] The enzymatic reaction was then stopped by adding 10 μL of the stop solution.\nThe percent inhibition (%) by the test compound was calculated using the following equation. percent inhibition (%) of phosphorylation=1−{(AC−AX)/(AC−AB)}×100 [E1]"}}}
{"smiles": "C=CC(=O)N1CC(n2c(=O)n(-c3ccc(Oc4ccccc4)cc3)c3c(N)ncnc32)C1", "note": "[Example 8, 9-(1-acryloyl-3-azetidinyl)-6-amino-7-(4-phenoxyphenyl)-7,9-dihydro-8H-purin-8-one]", "values": [{"measurement": "IC50", "setting": "Human liver cells", "value": 324, "unit": "µM"}, {"measurement": "IC50", "setting": "Human CYP2C8", "value": "> 10", "unit": "µM"}, {"measurement": "Residual ratio (%) in the rat liver microsome", "setting": "[1]", "value": 100, "unit": "%"}, {"measurement": "IC50", "setting": "Human CYP2C19", "value": "> 10", "unit": "µM"}, {"measurement": "IC50", "setting": "Btk", "value": 4, "unit": "nM"}]}
